A value given as a limit tells only on which side of the number the result lay.

In test [1] the target is MASP-2 (Homo sapiens (Human), UniProt O00187). The test can be described thus: MASP-2 inhibition (Ki). The test is classed as biochemical.
Test [2] has as its target Thrombin (Homo sapiens (Human), UniProt P00734). The test can be described thus: Thrombin inhibition (Ki). It is filed as biochemical. The note with it: for Ki: read-out: Thrombin Ki.
The target in test [3] is α-chymotrypsin (Bos taurus (Bovine), UniProt P00766, DEL14-15/DEL147-148). The note with it: cited from earlier work.

Chain of MASP-2 (O00187 16-686): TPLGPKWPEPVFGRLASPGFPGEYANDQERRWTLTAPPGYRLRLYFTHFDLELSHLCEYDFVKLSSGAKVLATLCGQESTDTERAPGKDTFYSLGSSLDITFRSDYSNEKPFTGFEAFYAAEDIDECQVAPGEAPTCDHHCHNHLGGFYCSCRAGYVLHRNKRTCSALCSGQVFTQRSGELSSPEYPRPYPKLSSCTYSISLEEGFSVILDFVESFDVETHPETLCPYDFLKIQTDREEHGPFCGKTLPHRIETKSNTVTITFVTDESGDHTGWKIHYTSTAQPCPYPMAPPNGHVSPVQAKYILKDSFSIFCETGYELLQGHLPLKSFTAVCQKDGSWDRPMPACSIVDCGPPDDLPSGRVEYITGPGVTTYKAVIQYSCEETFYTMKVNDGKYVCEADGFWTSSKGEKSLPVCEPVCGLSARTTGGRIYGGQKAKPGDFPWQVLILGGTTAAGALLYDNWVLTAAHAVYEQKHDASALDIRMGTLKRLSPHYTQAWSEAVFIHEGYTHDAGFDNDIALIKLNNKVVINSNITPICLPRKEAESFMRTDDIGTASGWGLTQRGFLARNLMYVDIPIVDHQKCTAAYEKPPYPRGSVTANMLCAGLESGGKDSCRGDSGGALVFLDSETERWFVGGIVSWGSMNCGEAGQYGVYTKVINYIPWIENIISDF

In general, Ki refers to the equilibrium dissociation constant of an inhibitor or competing ligand from its target. For the molecule `CCc1cc2c(=O)oc(-c3ccccc3C)nc2s1` [compound 43], the results for the Ki in test [1] and in test [2] were < 10 µM and 25 to 100 µM, respectively. Regarding `Nc1cc(OC(=O)c2ccco2)nn1S(=O)(=O)c1ccc(F)cc1` [compound 44], the Ki in test [1] was < 10 µM; in test [2], 25 to 100 µM.

In the case of `N#Cc1ccc(OC(=O)c2ccc(Br)o2)cc1` [compound 45], the Ki is < 10 µM in test [1] and 25 to 100 µM in test [2]. On to `Nc1nc2ccccc2[nH]1` [compound 46], for which the Ki in test [1] was 25 to 100 µM. Further, the “Thrombin Ki (μM)” value in test [2] is on record as “No activity”. `N=C(N)c1ccc(N)cc1` [compound 47] returned a Ki in test [1] of 25 to 100 µM. For the same molecule, the “Thrombin Ki (μM)” value in test [2] is listed as “No activity”. In the same order, the values of `CN(C(=O)c1cc2ccccc2cc1C(=O)C(c1cccc2ccccc12)P(=O)(O)O)C1CCN(C(=O)c2ccccc2)CC1` (stereo not drawn) [compound 51] are 10 to 25 µM and “No activity”.

Take `N=C(N)c1ccc2ccccc2c1` [compound 53]: the inhibition constant (Ki) in test [1] was < 10 µM; in test [2], 10 to 25 µM.

On to MeO-Suc-Ala-Ala-ProboroPhe-OH, for which the Ki in test [3] was 0.00016 µM.

Values taken from patent publication US11584714B2 (priority 2018, dated 2023).
